Legend:
Experiment in all cases: combination Emax (second highest fraction inhibited in the dose matrix, 72 h); higher = more inhibition; extreme values may be limits of the assay
[1] = system: LB831-BLC (Bladder Carcinoma)
Outline: (§1)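 Bliss excess equals the observed combination effect minus the expected value EA + EB − EA·EB, where EA and EB are the effects of each agent alone. Combination Emax is the second-highest inhibition within the matrix. Inhibition was scaled from CellTiter-Glo 2.0 luminescence, with 0 set by vehicle wells and 1 by blank wells, after 72 hours of two-drug dosing of cells plated in 1536-well plates.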

[2] = system: SNU-5 (Gastric Carcinoma)
Outline: as §1

[3] = system: MDA-MB-361 (Breast Carcinoma)
Outline: as §1

[4] = system: LS-180 (Colorectal Carcinoma)
Outline: as §1

KELLY (Neuroblastoma) = system: KELLY (Neuroblastoma)
Outline: as §1

[5] = system: B-CPAP (Thyroid Gland Carcinoma)
Outline: as §1

NOS-1 (Osteosarcoma) = system: NOS-1 (Osteosarcoma)
Outline: as §1

[6] = system: KURAMOCHI (Ovarian Carcinoma)
Outline: as §1

[7] = system: Hs-578-T (Breast Carcinoma)
Outline: as §1

[8] = system: CAL-148 (Breast Carcinoma)
Outline: as §1

[9] = system: OVCA420 (Ovarian Carcinoma)
Outline: as §1

[10] = system: EC-GI-10 (Esophageal Squamous Cell Carcinoma)
Outline: as §1

[11] = system: DEL (T-Cell Non-Hodgkin's Lymphoma)
Outline: as §1

[12] = system: RO82-W-1 (Thyroid Gland Carcinoma)
Outline: as §1

[13] = system: HuP-T4 (Pancreatic Carcinoma)
Outline: as §1

AGS (Gastric Carcinoma) = system: AGS (Gastric Carcinoma)
Outline: as §1

[14] = system: LNCaP-Clone-FGC (Prostate Carcinoma)
Outline: as §1

[15] = system: UM-UC-3 (Bladder Carcinoma)
Outline: as §1

[16] = system: MFE-296 (Endometrial Carcinoma)
Outline: as §1

[17] = system: HO-1-N-1 (Oral Cavity Carcinoma)
Outline: as §1

SMILES | combination Emax [1] | combination Emax [2] | combination Emax [3] | combination Emax [4] | combination Emax (KELLY (Neuroblastoma)) | combination Emax [5] | combination Emax (NOS-1 (Osteosarcoma)) | combination Emax [6] | combination Emax [7] | combination Emax [8] | combination Emax [9] | combination Emax [10] | combination Emax [11] | combination Emax [12] | combination Emax [13] | combination Emax (AGS (Gastric Carcinoma)) | combination Emax [14] | combination Emax [15] | combination Emax [16] | combination Emax [17]
CCN(CCO)CCCOc1ccc2c(Nc3cc(CC(=O)Nc4cccc(F)c4)[nH]n3)ncnc2c1 [AZD2811] + C=CCn1c(=O)c2cnc(Nc3ccc(N4CCN(C)CC4)cc3)nc2n1-c1cccc(C(C)(C)O)n1 [AZD1775] (first compound max 1 µM, partner max 1 µM) | 0.456 | 0.581 | 0.801 | 0.42 | 1 | 0.334 | 0.244 | 0.646 | 0.775 | 0.994 | 0.179 | 0.849 | 1 | 0.356 | 0.27 | 0.6 | 0.699 | 0.258 | 0.152 | 0.848
CCN(CCO)CCCOc1ccc2c(Nc3cc(CC(=O)Nc4cccc(F)c4)[nH]n3)ncnc2c1 [AZD2811] + C[C@@H]1COCCN1C2=NC(=NC(=C2)C3(CC3)[S@](=N)(=O)C)C4=C5C=CNC5=NC=C4 [AZD6738] (first compound max 1 µM, 7x7, partner max 10 µM) | 0.238 | 0.907 | 0.815 | 0.754 | 0.992 | 0.407 | 0.288 | 0.569 | 0.839 | 1 | 0.443 | 0.824 | 0.99 | 0.405 | 0.424 | 0.605 | 0.736 | 0.429 | 0.405 | 0.858
CCN(CCO)CCCOc1ccc2c(Nc3cc(CC(=O)Nc4cccc(F)c4)[nH]n3)ncnc2c1 [AZD2811] + O=C(c1cc(Cc2n[nH]c(=O)c3ccccc23)ccc1F)N1CCN(C(=O)C2CC2)CC1 [Olaparib] (first compound max 1 µM, 7x7, partner max 10 µM) | 0.268 | 0.108 | 0.27 | 0.36 | 0.788 | 0.231 | 0.22 | 0.237 | 0.622 | 0.966 | 0.137 | 0.551 | 0.823 | 0.195 | 0.289 | 0.302 | 0.495 | 0.305 | 0.211 | 0.824
CN(CCO)CC[C@H](CSc1ccccc1)Nc1ccc(S(=O)(=O)NC(=O)c2ccc(N3CCC([C@@H](O)c4ccccc4-c4ccc(Cl)cc4)CC3)cc2)cc1S(=O)(=O)C(F)(F)F [AZD4320] + C1CN(CCC1(C(=O)N[C@@H](CCO)C2=CC=C(C=C2)Cl)N)C3=NC=NC4=C3C=CN4 [Capivasertib] (first compound max 1 µM, 7x7, partner max 3 µM) | 0.338 | 0.447 | 0.341 | 0.213 | 0.229 | 0.284 | 0.475 | 0.351 | 0.639 | 1 | 0.0769 | 0.204 | 0.192 | 0.311 | 0.0723 | 0.692 | 0.97 | 0.196 | 0.388 | 0.216
CN(CCO)CC[C@H](CSc1ccccc1)Nc1ccc(S(=O)(=O)NC(=O)c2ccc(N3CCC([C@@H](O)c4ccccc4-c4ccc(Cl)cc4)CC3)cc2)cc1S(=O)(=O)C(F)(F)F [AZD4320] + C=CCn1c(=O)c2cnc(Nc3ccc(N4CCN(C)CC4)cc3)nc2n1-c1cccc(C(C)(C)O)n1 [AZD1775] (first compound max 1 µM, partner max 1 µM) | 0.634 | 0.658 | 0.918 | 0.422 | 1 | 0.632 | 0.992 | 0.807 | 0.928 | 0.994 | 0.37 | 0.903 | 1 | 0.618 | 0.395 | 0.999 | 0.773 | 0.276 | 0.273 | 0.549
CN(CCO)CC[C@H](CSc1ccccc1)Nc1ccc(S(=O)(=O)NC(=O)c2ccc(N3CCC([C@@H](O)c4ccccc4-c4ccc(Cl)cc4)CC3)cc2)cc1S(=O)(=O)C(F)(F)F [AZD4320] + CCN(CCO)CCCOc1ccc2c(Nc3cc(CC(=O)Nc4cccc(F)c4)[nH]n3)ncnc2c1 [AZD2811] (first compound max 1 µM, 7x7, partner max 1 µM) | 0.526 | 0.45 | 0.679 | 0.18 | 0.892 | 0.57 | 0.667 | 0.327 | 0.918 | 1 | 0.174 | 0.401 | 0.804 | 0.46 | 0.274 | 0.979 | 0.245 | 0.226 | 0.11 | 0.886
CN(CCO)CC[C@H](CSc1ccccc1)Nc1ccc(S(=O)(=O)NC(=O)c2ccc(N3CCC([C@@H](O)c4ccccc4-c4ccc(Cl)cc4)CC3)cc2)cc1S(=O)(=O)C(F)(F)F [AZD4320] + CN(C)CCCOc1ccc(-c2ccc3ncc4c(c3c2)n(C2CCOCC2)c(=O)n4C)cn1 [AZD0156] (first compound max 1 µM, 7x7, partner max 1 µM) | 0.286 | 0.245 | 0.205 | 0.159 | 0.597 | 0.408 | 0.611 | 0.189 | 0.531 | 0.504 | 0.174 | 0.193 | 0.357 | 0.469 | 0.127 | 0.237 | 0.335 | 0.201 | 0.0842 | 0.156
CN(CCO)CC[C@H](CSc1ccccc1)Nc1ccc(S(=O)(=O)NC(=O)c2ccc(N3CCC([C@@H](O)c4ccccc4-c4ccc(Cl)cc4)CC3)cc2)cc1S(=O)(=O)C(F)(F)F [AZD4320] + C[C@@H]1COCCN1C2=NC(=NC(=C2)C3(CC3)[S@](=N)(=O)C)C4=C5C=CNC5=NC=C4 [AZD6738] (first compound max 1 µM, 7x7, partner max 10 µM) | 0.381 | 0.978 | 0.918 | 0.739 | 0.982 | 0.804 | 0.914 | 0.687 | 0.991 | 0.978 | 0.516 | 0.647 | 1 | 0.785 | 0.621 | 0.993 | 0.782 | 0.7 | 0.559 | 0.937
CN(CCO)CC[C@H](CSc1ccccc1)Nc1ccc(S(=O)(=O)NC(=O)c2ccc(N3CCC([C@@H](O)c4ccccc4-c4ccc(Cl)cc4)CC3)cc2)cc1S(=O)(=O)C(F)(F)F [AZD4320] + C[C@@H](Nc1cc(F)cc(F)c1)c1cc(C(=O)N(C)C)cc2c(=O)cc(N3CCOCC3)oc12 [AZD8186] (first compound max 1 µM, 7x7, partner max 3 µM) | 0.532 | 0.703 | 0.672 | 0.504 | 0.7 | 0.612 | 0.748 | 0.548 | 0.874 | 0.996 | 0.261 | 0.333 | 0.888 | 0.521 | 0.515 | 0.974 | 0.912 | 0.374 | 0.306 | 0.735
CN(CCO)CC[C@H](CSc1ccccc1)Nc1ccc(S(=O)(=O)NC(=O)c2ccc(N3CCC([C@@H](O)c4ccccc4-c4ccc(Cl)cc4)CC3)cc2)cc1S(=O)(=O)C(F)(F)F [AZD4320] + Cc1cc2ncnn2cc1Nc1ncc2c(n1)n(C1CCOCC1)c(=O)n2C [AZD7648] (first compound max 1 µM, 7x7, partner max 10 µM) | 0.214 | 0.45 | 0.459 | 0.234 | 0.493 | 0.408 | 0.753 | 0.161 | 0.63 | 0.744 | 0.157 | 0.232 | 0.315 | 0.395 | 0.156 | 0.318 | 0.415 | 0.121 | 0.124 | 0.226
CN(CCO)CC[C@H](CSc1ccccc1)Nc1ccc(S(=O)(=O)NC(=O)c2ccc(N3CCC([C@@H](O)c4ccccc4-c4ccc(Cl)cc4)CC3)cc2)cc1S(=O)(=O)C(F)(F)F [AZD4320] + Cn1cnc2c(F)c(Nc3ccc(Br)cc3Cl)c(C(=O)NOCCO)cc21 [Selumetinib] (first compound max 1 µM, 7x7, partner max 3 µM) | 0.373 | 0.759 | 0.334 | 0.691 | 0.737 | 0.741 | 0.69 | 0.584 | 0.812 | 0.996 | 0.451 | 0.51 | 0.858 | 0.538 | 0.544 | 1 | 0.414 | 0.332 | 0.396 | 0.619
COc1nnc2ccc(N3CCC(c4ccc(OCCN5CCN(C)C(=O)[C@H]5C)cc4)CC3)nn12 [AZD5153] + C=CCn1c(=O)c2cnc(Nc3ccc(N4CCN(C)CC4)cc3)nc2n1-c1cccc(C(C)(C)O)n1 [AZD1775] (first compound max 1 µM, partner max 1 µM) | 0.668 | 0.522 | 0.791 | 0.623 | 1 | 0.734 | 0.867 | 0.83 | 0.822 | 0.907 | 0.789 | 0.865 | 1 | 0.451 | 0.549 | 0.923 | 0.758 | 0.393 | 0.581 | 0.813
